Assay results from PMC10330721, “Chemo-enzymatic synthesis and biological activity evaluation of propenylbenzene derivatives” (Frontiers in Microbiology, 2023).
Values after ≈ are worked out from the molar mass of the structure shown. Like-named read-outs stand apart in the source and are kept apart here.

What was measured:
[1] = system: Caco-2 cells; test: Resazurin-based viability assay; format: cell-based, human; conditions: for Effect on Caco-2 proliferation / viability (in words): 24 h, 1, 50 and 200 μg/mL
Method: (§1) The human HepG2 and Caco-2 cell lines were obtained from the American Type Culture Collection (HB-8065™ and HTB-37™) and the MG-63 cell line was obtained from the European Collection of Authenticated Cell Cultures (Merck, Poznań, Poland). HepG2 cells were cultured in Dulbecco’s modified Eagle’s Medium - low glucose (Merck) supplemented with 10% foetal bovine serum (FBS) (Merck). Caco-2 cells were cultured in Dulbecco’s modified Eagle’s medium - high glucose (Merck) supplemented with 10% FBS, 2% HEPES buffer (Thermo Fisher Scientific, Warszawa, Poland), 1% Penicillin–Streptomycin-Amphotericin B Solution (100×, Merck), 1% MEM solution (100×, Thermo Fisher Scientific), and 1% Gentamycin Solution (10 mg/mL, Merck). MG-63 cells were cultured in Minimum Essential Medium (Merck) supplemented with 10% FBS. All cells were cultured in an atmosphere of 5% CO2 at 37°C.
(§2) HepG2, Caco-2, and […] were seeded in 96-well plates at 20,000 cells per well, and MG-63 cells at 10,000 cells per well, as described previously ([Marycz et al., 2012]; [Kornicka et al., 2017]). The tested compounds were dissolved in ethanol at 10 mg/mL. The concentrations were then adjusted to 1, 50, and 200 μg/mL in culture medium. Four controls were prepared: no ethanol added, and 0.01, 0.5, and 2% EtOH. The cells were treated with the compounds for 24 h. Then, cell viability was evaluated using the resazurin-based assay kit (TOX8), as described previously ([Grzesiak et al., 2011]; [Marycz et al., 2018]). The culture medium was replaced with medium containing 10% resazurin dye. The cells were incubated at 37°C in an atmosphere of 5% CO2 for 2 h. Absorbance levels were measured spectrophotometrically (Epoch) at a wavelengths of 600 nm for resazurin and 690 nm as a reference.

[2] = system: RBCs membrane; test: Fluorescence spectroscopy of the RBCs membrane (DPH probe anisotropy); format: cell-based, human; conditions: for Change in DPH anisotropy / RBCs membrane fluidity (in words): RBCs, 20, 60 and 100 μM; for Fluorescence anisotropy of the DPH probe: membranes of RBCs, 37 °C
Method: Using the DPH probe, the anisotropy values of cell membranes of RBCs modified with the test compounds were measured. RBCs for this analysis were prepared according to the method described in subsection 2.5.3. Then, the DPH probe was added to RBCs with a haematocrit of 0.2%. The final concentration of the probe in the sample was 1.3 μM. The mixture was incubated protected from light at 37°C for 30 min. Then, the compounds dissolved in ethanol were added. The compounds were tested at 20, 60, and 100 μM concentrations. Samples with compounds and control samples with alcohol of the appropriate concentration were incubated at 37°C for 1 h. Measurements in triplicate were made in quartz cuvettes using a CARY Eclipse fluorimeter (Varian, San Diego, CA, United States) at 37°C. The excitation wavelength for the DPH probe is λexc = 360 nm and the emission wavelength is λem = 426 nm.

[3] = system: C. albicans strains; test: Fungistatic activity assay, broth microdilution, values given over several strains; format: cell-based, Candida albicans; conditions: Candida albicans
Method: (§3) Fungistatic activity was determined using Candida albicans ATCC 90028 from the American Type Culture Collection (ATCC, Manassas, VA, United States), and clinical isolates, C. albicans 636/20, C. albicans 595/20, and C. albicans 38 obtained from Wrocław Medical University, Wrocław, Poland.
(§4) All compounds were tested for biological activity against C. albicans ATTC 90028, C. albicans 636/20, C. albicans 595/20, and C. albicans 38 using the broth microdilution method. YPD medium (20 g glucose, 20 g Bacto Peptone, 10 g yeast extract, and 1 L of distilled water, pH 6.5) was used for the tests. The compound solutions were prepared in DMSO and diluted in YPD to obtain final concentrations in the range of 10–250 μg/mL. One hundred microlitres of each solution was pipetted into the wells of a 96-well microtiter plate. The inoculum was standardized to 0.5 McFarland standard and then diluted to obtain a final suspension with a cell density of 0.5–2.5 × 10^3 CFU/mL. The inoculum size was 100 μL. The positive control comprised DMSO added in the same concentration as the tested compounds in the inoculum, whereas the negative control consisted of DMSO diluted in the broth without the addition of inoculum. The microtiter plates were incubated in a Biosan PST-60 HL Plate Shaker-Thermostat (Riga, Latvia) at 35°C under shaking at 1,000 rpm for 24 h.

[4] = Haemolytic activity assay; format: cell-based; conditions: human red blood cells (RBCs) from healthy donors, 37°C, read-out: Percentage of haemolysis
Method: This test is based on comparison of the cytotoxicity of all tested compounds in human red blood cells (RBCs) with that in a control group. RBCs for this method were obtained from a blood center from examined and healthy donors. The compounds were tested at 10, 20, 40, 60, 80, and 100 μM concentrations. The control sample contained only ethanol in the same volume as the test samples. […] The samples were incubated at 37°C for 1 h. Then, the absorbance at 540 nm was measured using a UV–Vis spectrophotometer (Specord 40, Analytik Jena, Jena, Germany). The haemolytic activity of the compounds was determined as the ratio of the absorbance of haemoglobin in the test samples to that in completely haemolyzed cells multiplied by 100%.

[5] = system: MG63 cells; test: Resazurin-based viability assay; format: cell-based, human; conditions: for Effect on MG63 proliferation / viability (in words): 24 h, 1, 50 and 200 μg/mL
Method: as §1, with “HepG2” for “The human HepG2 and Caco-2 cell lines were obtained from the American Type Culture Collection (HB-8065™ and HTB-37™) and the MG-63 cell line was obtained from the European Collection of Authenticated Cell Cultures (Merck, Poznań, Poland). HepG2”
The tested compounds were dissolved in ethanol at 10 mg/mL. The concentrations were then adjusted to 1, 50, and 200 μg/mL in culture medium. Four controls were prepared: no ethanol added, and 0.01, 0.5, and 2% EtOH. The cells were treated with the compounds for 24 h. […] The culture medium was replaced with medium containing 10% resazurin dye. The cells were incubated at 37°C in an atmosphere of 5% CO2 for 2 h. Absorbance levels were measured spectrophotometrically (Epoch) at a wavelengths of 600 nm for resazurin and 690 nm as a reference.

[6] = system: HepG2 cells; test: Resazurin-based viability assay; format: cell-based, human
Method: as §1, §2

[7] = system: C. albicans 595/20; test: Fungistatic activity assay, broth microdilution; format: cell-based; conditions: Candida albicans; C. albicans 595/20, 24 h, 35°C, tested 10–250 μg/mL; read-out: MIC50
Method: as §3, §4

[8] = system: C. albicans ATTC18804; design: method as in Kubo et al., 1993; conditions: C. albicans ATTC18804 ref Kubo et al., 1993; cited from earlier work

| SMILES | Effect on Caco-2 proliferation / viability (in words) [1] | Change in DPH anisotropy / RBCs membrane fluidity (in words) [2] | Fluorescence anisotropy of the DPH probe ([2]; 20 µM) | Fluorescence anisotropy of the DPH probe ([2]; 60 µM) | Fluorescence anisotropy of the DPH probe ([2]; 100 µM) | hemolysis at 1 h, 10 µM [4] [%] | hemolysis at 1 h, 20 µM [4] [%] | hemolysis at 1 h, 40 µM [4] [%] | hemolysis at 1 h, 60 µM [4] [%] | hemolysis at 1 h, 80 µM [4] [%] | hemolysis at 1 h, 100 µM [4] [%] | Effect on MG63 proliferation / viability (in words) [5] | further results |
| --- | --- | --- | --- | --- | --- | --- | --- | --- | --- | --- | --- | --- | --- |
| COc1ccc(C(O)C(C)O)cc1OC (stereo not shown) [4b, 1-(3,4-dimethoxyphenyl)propane-1,2-diol] | strongest inhibition | increase in anisotropy | 0.289 ± 0.004 | 0.228 ± 0.095 | 0.290 ± 0.003 | 1.64 ± 0.127 | 1.52 ± 0.375 | 1.42 ± 0.074 | 1.2 ± 0.395 | 1.19 ± 0.04 | 2.06 ± 0.536 |  | MIC50 ([3]; C. albicans 636/20, 595/20, 38 and ATTC90028, read-out: MIC50 (over all tested strains)): 37 to 63 mg/L (≈ 174 to 297 µM) |
| COc1cc(C(O)C(C)O)ccc1O (stereo not shown) [5b, 1-(4-hydroxy-3-methoxyphenyl)propane-1,2-diol] |  |  | 0.268 ± 0.025 | 0.277 ± 0.003 | 0.272 ± 0.058 | 1.27 ± 0.094 | 1.55 ± 0.101 | 1.52 ± 0.181 | 1.62 ± 0.174 | 2.58 ± 0.288 | 1.98 ± 0.308 | suppressed the proliferation | Effect on MG63 proliferative activity (in words) ([5]; 24 h, 1 μg/mL): induced the proliferative activity; Effect on MG63 proliferative activity / viability (in words) ([5]; 24 h, 50 μg/mL): significantly increased cell viability; Effect on HepG2 proliferative activity (in words) ([6]; 24 h, 1 μg/mL): induced the proliferative activity; Effect on Caco-2 proliferative activity (in words) ([1]; 24 h, 1 μg/mL): induced the proliferative activity |
| COc1ccc(C(O)C(C)O)cc1 (stereo not shown) [3b, 1-(4-methoxyphenyl)propane-1,2-diol] | strongest inhibition | an increase in anisotropy at lower concentrations and a decrease at higher concentrations | 0.272 ± 0.019 | 0.249 ± 0.083 | 0.262 ± 0.056 | 2.45 ± 0.509 | 2.98 ± 0.153 | 1.9 ± 0.209 | 2.29 ± 0.635 | 2.4 ± 0.209 | 2.6 ± 0.265 | suppressed the proliferation | MIC50 [7]: 47 mg/L (≈ 258 µM); Effect on HepG2 proliferation / viability (in words) ([6]; 24 h, 1, 50 and 200 μg/mL): significantly increased the proliferative potential; MIC50 ([3]; C. albicans 595/20, 636/20 and 38, read-out: MIC50 (over three strains)): 47 to 76 mg/L (≈ 258 to 417 µM) |
| COc1ccc(C(=O)C(C)O)cc1OC (stereo not shown) [4c, 1-(3,4-dimethoxyphenyl)-2-hydroxypropan-1-one] |  | a decrease in anisotropy | 0.257 ± 0.014 | 0.243 ± 0.019 | 0.263 ± 0.008 | 1.483 ± 0.007 | 1.93 ± 0.228 | 2.1 ± 0.395 | 1.77 ± 0.342 | 2.02 ± 0.047 | 2.445 ± 0.013 | promoted MGC63 proliferation |  |
| CC=Cc1ccc(OC)c(OC)c1 [4a, 1,2-dimethoxy-4-prop-1-en-1-yl benzene] |  |  | 0.264 ± 0.004 | 0.261 ± 0.008 | 0.269 ± 0.007 | 1.76 ± 0.152 | 1.48 ± 0.173 | 1.67 ± 0.195 | 1.58 ± 0.18 | 2.48 ± 0.152 | 1.79 ± 0.159 | promoted MGC63 proliferation | MIC [8]: 400 mg/L (≈ 2240 µM); MIC50 ([3]; read-out: MIC50 (over all tested strains)): 39 to 67 mg/L (≈ 219 to 376 µM) |
